Source: ChEMBL document CHEMBL1150788, “In vitro susceptibility of Sporothrix schenckii to six antifungal agents determined using three different methods” (2007)
Converted amounts (≈) assume the structure as drawn.

Tests used:
Format in all cases: functional
Sporothrix schenckii [1] = test: Antifungal activity against Sporothrix schenckii P24255 isolate from cutaneous-lymphatic sporotrichosis patient after 72 hrs by modified NCCLS M38-A method
Sporothrix schenckii [2] = test: Antifungal activity against Sporothrix schenckii PGAC0016 isolate from cutaneous-lymphatic sporotrichosis patient after 72 hrs by ATB Fungus 2 method
Sporothrix schenckii [3] = test: Antifungal activity against Sporothrix schenckii P0019 isolate from cutaneous-lymphatic sporotrichosis patient after 72 hrs by Sensititre YeastOne method
Sporothrix schenckii [4] = test: Antifungal activity against Sporothrix schenckii P24223 isolate from cutaneous-lymphatic sporotrichosis patient after 72 hrs by Sensititre YeastOne method
Sporothrix schenckii [5] = test: Antifungal activity against Sporothrix schenckii MRSS4 isolate from cutaneous-lymphatic sporotrichosis patient after 72 hrs by Sensititre YeastOne method
Sporothrix schenckii [6] = test: Antifungal activity against Sporothrix schenckii SSA29 isolate from cutaneous-lymphatic sporotrichosis patient after 72 hrs by modified NCCLS M38-A method
Sporothrix schenckii [7] = test: Antifungal activity against Sporothrix schenckii P24255 isolate from cutaneous-lymphatic sporotrichosis patient after 72 hrs by Sensititre YeastOne method
Sporothrix schenckii [8] = test: Antifungal activity against Sporothrix schenckii P20825 isolate from cutaneous-lymphatic sporotrichosis patient after 72 hrs by ATB Fungus 2 method
Sporothrix schenckii [9] = test: Antifungal activity against Sporothrix schenckii P24223 isolate from cutaneous-lymphatic sporotrichosis patient after 72 hrs by ATB Fungus 2 method
Sporothrix schenckii [10] = test: Antifungal activity against Sporothrix schenckii PSSA81 isolate from cutaneous-lymphatic sporotrichosis patient after 72 hrs by modified NCCLS M38-A method
Sporothrix schenckii [11] = test: Antifungal activity against Sporothrix schenckii P25013 isolate from cutaneous-lymphatic sporotrichosis patient after 72 hrs by modified NCCLS M38-A method
Sporothrix schenckii [12] = test: Antifungal activity against Sporothrix schenckii P30019 isolate from cutaneous-lymphatic sporotrichosis patient after 72 hrs by ATB Fungus 2 method
Sporothrix schenckii [13] = test: Antifungal activity against Sporothrix schenckii isolate from cutaneous-lymphatic sporotrichosis patient after 72 hrs by modified NCCLS M38-A method
Sporothrix schenckii [14] = test: Antifungal activity against Sporothrix schenckii P10012 isolate from cutaneous-lymphatic sporotrichosis patient after 72 hrs by ATB Fungus 2 method
Sporothrix schenckii [15] = test: Antifungal activity against Sporothrix schenckii P14036 isolate from cutaneous-lymphatic sporotrichosis patient after 72 hrs by ATB Fungus 2 method
Sporothrix schenckii [16] = test: Antifungal activity against Sporothrix schenckii P30019 isolate from cutaneous-lymphatic sporotrichosis patient after 72 hrs by modified NCCLS M38-A method
Sporothrix schenckii [17] = test: Antifungal activity against Sporothrix schenckii isolate from cutaneous-lymphatic sporotrichosis patient after 72 hrs by ATB Fungus 2 method
Sporothrix schenckii [18] = test: Antifungal activity against Sporothrix schenckii PSCC1 isolate from cutaneous-lymphatic sporotrichosis patient after 72 hrs by ATB Fungus 2 method
Sporothrix schenckii [19] = test: Antifungal activity against Sporothrix schenckii P10012 isolate from cutaneous-lymphatic sporotrichosis patient after 72 hrs by modified NCCLS M38-A method
Sporothrix schenckii [20] = test: Antifungal activity against Sporothrix schenckii isolate from cutaneous-lymphatic sporotrichosis patient after 72 hrs by Sensititre YeastOne method
Sporothrix schenckii [21] = test: Antifungal activity against Sporothrix schenckii SSA29 isolate from cutaneous-lymphatic sporotrichosis patient after 72 hrs by Sensititre YeastOne method
Sporothrix schenckii [22] = test: Antifungal activity against Sporothrix schenckii P30915 isolate from cutaneous-lymphatic sporotrichosis patient after 72 hrs by Sensititre YeastOne method
Pichia kudriavzevii [23] = test: Antifungal activity against Candida krusei ATCC 6258 […] after 72 hrs by ATB Fungus 2 method; conditions: ATCC 6258, 72 h
Sporothrix schenckii [24] = test: Antifungal activity against Sporothrix schenckii SSA29 isolate from cutaneous-lymphatic sporotrichosis patient after 72 hrs by ATB Fungus 2 method
Sporothrix schenckii [25] = test: Antifungal activity against Sporothrix schenckii PSCC1 isolate from cutaneous-lymphatic sporotrichosis patient after 72 hrs by modified NCCLS M38-A method
Sporothrix schenckii [26] = test: Antifungal activity against Sporothrix schenckii P26187 isolate from cutaneous-lymphatic sporotrichosis patient after 72 hrs by modified NCCLS M38-A method
Sporothrix schenckii [27] = test: Antifungal activity against Sporothrix schenckii PJRC002 isolate from cutaneous-lymphatic sporotrichosis patient after 72 hrs by modified NCCLS M38-A method
Sporothrix schenckii [28] = test: Antifungal activity against Sporothrix schenckii P20825 isolate from cutaneous-lymphatic sporotrichosis patient after 72 hrs by Sensititre YeastOne method
Sporothrix schenckii [29] = test: Antifungal activity against Sporothrix schenckii MRSS4 isolate from cutaneous-lymphatic sporotrichosis patient after 72 hrs by ATB Fungus 2 method
Sporothrix schenckii [30] = test: Antifungal activity against Sporothrix schenckii P14036 isolate from cutaneous-lymphatic sporotrichosis patient after 72 hrs by modified NCCLS M38-A method
Sporothrix schenckii [31] = test: Antifungal activity against Sporothrix schenckii P14954 isolate from cutaneous-lymphatic sporotrichosis patient after 72 hrs by ATB Fungus 2 method
Sporothrix schenckii [32] = test: Antifungal activity against Sporothrix schenckii P24223 isolate from cutaneous-lymphatic sporotrichosis patient after 72 hrs by modified NCCLS M38-A method
Pichia kudriavzevii [33] = test: Antifungal activity against Candida krusei ATCC 6258 […] after 72 hrs by Sensititre YeastOne method; conditions: ATCC 6258, 72 h
Sporothrix schenckii [34] = test: Antifungal activity against Sporothrix schenckii P25013 isolate from cutaneous-lymphatic sporotrichosis patient after 72 hrs by ATB Fungus 2 method
Sporothrix schenckii [35] = test: Antifungal activity against Sporothrix schenckii PSCC1 isolate from cutaneous-lymphatic sporotrichosis patient after 72 hrs by Sensititre YeastOne method
Sporothrix schenckii [36] = test: Antifungal activity against Sporothrix schenckii PGAC0016 isolate from cutaneous-lymphatic sporotrichosis patient after 72 hrs by Sensititre YeastOne method
Sporothrix schenckii [37] = test: Antifungal activity against Sporothrix schenckii P1621 isolate from cutaneous-lymphatic sporotrichosis patient after 72 hrs by modified NCCLS M38-A method
Sporothrix schenckii [38] = test: Antifungal activity against Sporothrix schenckii P14954 isolate from cutaneous-lymphatic sporotrichosis patient after 72 hrs by modified NCCLS M38-A method
Sporothrix schenckii [39] = test: Antifungal activity against Sporothrix schenckii P30019 isolate from cutaneous-lymphatic sporotrichosis patient after 72 hrs by Sensititre YeastOne method
Sporothrix schenckii [40] = test: Antifungal activity against Sporothrix schenckii P30915 isolate from cutaneous-lymphatic sporotrichosis patient after 72 hrs by modified NCCLS M38-A method
Sporothrix schenckii [41] = test: Antifungal activity against Sporothrix schenckii P26187 isolate from cutaneous-lymphatic sporotrichosis patient after 72 hrs by Sensititre YeastOne method
Sporothrix schenckii [42] = test: Antifungal activity against Sporothrix schenckii PJRC002 isolate from cutaneous-lymphatic sporotrichosis patient after 72 hrs by Sensititre YeastOne method
Sporothrix schenckii [43] = test: Antifungal activity against Sporothrix schenckii PGAC0016 isolate from cutaneous-lymphatic sporotrichosis patient after 72 hrs by modified NCCLS M38-A method
Sporothrix schenckii [44] = test: Antifungal activity against Sporothrix schenckii PSSA81 isolate from cutaneous-lymphatic sporotrichosis patient after 72 hrs by ATB Fungus 2 method
Candida parapsilosis = test: Antifungal activity against Candida parapsilosis ATCC 22019 […] after 72 hrs by ATB Fungus 2 method; conditions: Lodderomyces parapsilosis, ATCC 22019, 72 h

Question: For `OC(Cn1cncn1)(Cn1cncn1)c1ccc(F)cc1F` [FLUCONAZOLE], which MIC (Sporothrix schenckii [1]) is on record?
Answer: > 64 µg/mL

Question: And the MIC (Sporothrix schenckii [2])?
Answer: > 128 µg/mL

Question: What about the MIC (Sporothrix schenckii [3]) of the same compound?
Answer: > 256 µg/mL

Question: And the MIC (Sporothrix schenckii [4])?
Answer: > 256 µg/mL

Question: And the MIC (Sporothrix schenckii [5])?
Answer: > 256 µg/mL

Question: And the MIC (Sporothrix schenckii [6])?
Answer: > 64 µg/mL

Question: What about the MIC (Sporothrix schenckii [7]) of the same compound?
Answer: > 256 µg/mL

Question: What about the MIC (Sporothrix schenckii [8]) of the same compound?
Answer: > 128 µg/mL

Question: What about the MIC (Sporothrix schenckii [9]) of the same compound?
Answer: > 128 µg/mL

Question: And the MIC (Sporothrix schenckii [10])?
Answer: > 64 µg/mL

Question: What about the MIC (Sporothrix schenckii [11]) of the same compound?
Answer: > 64 µg/mL

Question: What about the MIC (Sporothrix schenckii [12]) of the same compound?
Answer: > 128 µg/mL

Question: And the MIC50 (Sporothrix schenckii [13])?
Answer: > 64 µg/mL

Question: And the MIC90 (Sporothrix schenckii [13])?
Answer: > 64 µg/mL

Question: What about the MIC (Sporothrix schenckii [14]) of the same compound?
Answer: > 128 µg/mL

Question: What about the MIC (Sporothrix schenckii [15]) of the same compound?
Answer: > 128 µg/mL

Question: What about the MIC (Sporothrix schenckii [16]) of the same compound?
Answer: > 64 µg/mL

Question: And the MIC50 (Sporothrix schenckii [17])?
Answer: > 128 µg/mL

Question: What about the MIC90 (Sporothrix schenckii [17]) of the same compound?
Answer: > 128 µg/mL

Question: What about the MIC (Sporothrix schenckii [18]) of the same compound?
Answer: > 128 µg/mL

Question: What about the MIC (Sporothrix schenckii [19]) of the same compound?
Answer: > 64 µg/mL

Question: And the MIC50 (Sporothrix schenckii [20])?
Answer: > 256 µg/mL

Question: And the MIC90 (Sporothrix schenckii [20])?
Answer: > 256 µg/mL

Question: What about the MIC (Sporothrix schenckii [21]) of the same compound?
Answer: > 256 µg/mL

Question: What about the MIC (Sporothrix schenckii [22]) of the same compound?
Answer: > 256 µg/mL

Question: And the MIC (Pichia kudriavzevii [23])?
Answer: 32 µg/mL (≈ 104 µM)

Question: And the MIC (Sporothrix schenckii [24])?
Answer: > 128 µg/mL

Question: What about the MIC (Sporothrix schenckii [25]) of the same compound?
Answer: > 64 µg/mL

Question: What about the MIC (Sporothrix schenckii [26]) of the same compound?
Answer: > 64 µg/mL

Question: What about the MIC (Sporothrix schenckii [27]) of the same compound?
Answer: > 64 µg/mL

Question: What about the MIC (Sporothrix schenckii [28]) of the same compound?
Answer: 256 µg/mL (≈ 836 µM)

Question: What about the MIC (Sporothrix schenckii [29]) of the same compound?
Answer: > 128 µg/mL

Question: And the MIC (Sporothrix schenckii [30])?
Answer: > 128 µg/mL

Question: What about the MIC (Sporothrix schenckii [31]) of the same compound?
Answer: > 128 µg/mL

Question: And the MIC (Sporothrix schenckii [32])?
Answer: > 64 µg/mL

Question: What about the MIC (Pichia kudriavzevii [33]) of the same compound?
Answer: 64 µg/mL (≈ 209 µM)

Question: And the MIC (Sporothrix schenckii [34])?
Answer: > 128 µg/mL

Question: And the MIC (Sporothrix schenckii [35])?
Answer: > 256 µg/mL

Question: And the MIC (Sporothrix schenckii [36])?
Answer: > 256 µg/mL

Question: And the MIC (Sporothrix schenckii [37])?
Answer: > 64 µg/mL

Question: And the MIC (Sporothrix schenckii [38])?
Answer: > 64 µg/mL

Question: And the MIC (Sporothrix schenckii [39])?
Answer: > 128 µg/mL

Question: And the MIC (Sporothrix schenckii [40])?
Answer: > 64 µg/mL

Question: What about the MIC (Sporothrix schenckii [41]) of the same compound?
Answer: 128 µg/mL (≈ 418 µM)

Question: What about the MIC (Sporothrix schenckii [42]) of the same compound?
Answer: > 256 µg/mL

Question: What about the MIC (Sporothrix schenckii [43]) of the same compound?
Answer: > 64 µg/mL

Question: What about the MIC (Sporothrix schenckii [44]) of the same compound?
Answer: > 128 µg/mL

Question: And the MIC (Candida parapsilosis)?
Answer: 4 µg/mL (≈ 13.1 µM)
